For the first test, the target named is T1, Endothelin-1 receptor (Rattus norvegicus, UniProt P26684).
T1 sequence (P26684 whole entry): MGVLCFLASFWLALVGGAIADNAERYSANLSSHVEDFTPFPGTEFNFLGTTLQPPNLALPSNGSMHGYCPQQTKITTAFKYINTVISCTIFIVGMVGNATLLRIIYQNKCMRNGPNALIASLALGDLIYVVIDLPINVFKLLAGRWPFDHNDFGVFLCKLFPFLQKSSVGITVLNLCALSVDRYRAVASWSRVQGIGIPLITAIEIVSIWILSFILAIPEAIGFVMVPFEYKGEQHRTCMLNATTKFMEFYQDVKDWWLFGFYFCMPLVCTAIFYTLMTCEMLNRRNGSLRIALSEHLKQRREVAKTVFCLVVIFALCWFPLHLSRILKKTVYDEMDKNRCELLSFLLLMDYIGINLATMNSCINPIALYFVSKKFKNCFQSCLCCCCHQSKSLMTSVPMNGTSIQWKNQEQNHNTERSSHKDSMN
In words: Inhibition of [125I]ET1 binding to rat aorta membrane Endothelin A receptor.
On to `COc1ccc(-c2c(C(=O)O)c(=O)n(Cc3ccc4nsnc4c3)c3c2oc2ccccc23)cc1`, for which the IC50 was 390 nM. That is a sub-micromolar value.
`COc1cc2c(-c3ccc4c(c3)OCO4)c(C(=O)O)n(Cc3ccc4c(c3)OCO4)c2cc1OC` showed an IC50 of 150 nM.
Still for that read-out and setting: to `CN(C)c1cccc2c(S(=O)(=O)Nc3ccc4c(c3)OCO4)cccc12` belongs 370 nM.
`CCCOc1ccc2c(c1)c(-c1ccc(OC)cc1)c(C(=O)O)n2Cc1ccc2nsnc2c1` registered an IC50 of 210 nM.
The compound `COc1ccc(-c2c(C(=O)O)c(=O)n(Cc3ccc4c(c3)OCO4)c3c2oc2ccccc23)cc1` displayed an IC50 of 1300 nM.
Still for that read-out and setting: to `CCCOc1ccc2c(c1)c(-c1ccc3c(c1)OCO3)c(C(=O)O)n2Cc1ccc2nsnc2c1` belongs 97 nM; to `COc1cc2c(-c3ccc4c(c3)OCO4)c(C(=O)O)n(Cc3ccc4nsnc4c3)c2cc1OC`, 33 nM.
On the same count and under the same terms, as for `CCCOc1ccc2c(c1)c(-c1ccc3c(c1)OCO3)c(C(=O)O)n2Cc1ccc2c(c1)OCO2`, the figure is 250 nM; as for `COc1ccc(C2(O)OC(=O)C(c3ccc4nsnc4c3)=C2Cc2cc(OC)c(OC)c(OC)c2)cc1` (stereo not drawn), 0.3 nM; as for `CCCOc1ccc2c(c1)c(-c1ccc(OC)cc1)c(C(=O)O)n2Cc1cc2nsnc2cc1C`, 160 nM.
On the same count and under the same terms, as for `CCCOc1ccc2c(c1)c(-c1ccc3c(c1)OCO3)c(C(=O)O)n2Cc1ccc2nonc2c1`, the figure is 2500 nM.

The next test deals with Endothelin-1 receptor (Rattus norvegicus). In words: pA2 value towards endothelin receptor A was determined as functional ETA antagonism.
Turning to `COc1ccc(C(=O)/C(Cc2cc(OC)c(OC)c(OC)c2)=C(\C(=O)O)c2ccc3c(c2)OCO3)cc1` [PD-156707 SODIUM], the antagonist equilibrium constant (Kb) is 25.1 nM. This lies in the double-digit nanomolar range.
In the case of `COc1ccc(C(=O)/C(Cc2cc(OC)c(OC)c(OC)c2)=C(\C(=O)O)c2ccc3nsnc3c2)cc1`, the Kb was 3.16 nM.

Usually IC50 stands for the midpoint of a concentration-inhibition curve. The Kb is the affinity of an antagonist, worked out from how it opposes an agonist. Read a high Kb as lower antagonist affinity.

Values taken from ChEMBL document CHEMBL1130971, “Endothelin antagonists: evaluation of 2,1,3-benzothiadiazole as a methylendioxyphenyl bioisoster” (Bioorg Med Chem Lett, 1998).
